Literature values in publication PMC7150867, “Molecular Imaging of Galectin-1 Expression as a Biomarker of Papillary Thyroid Cancer by Using Peptide-Functionalized Imaging Probes” (Biology, 2020).

Excerpt: To validate the effectiveness of gal-1-targeted peptides, another type of probe and therefore imaging of thyroid cancer was explored. Owing to its high sensitivity, in the order of nanomolar, resolution in the range of 50–130 µm, and nonionizing radiation, FLI appears as a promising imaging technique in the field of biomedical research and clinical diagnosis of a wide range of pathologies. In oncology, FLI enables early diagnosis and the depiction of the extent of cancer invasion, improving the accuracy of tumor resection.

## YSWHIDIVAPRN [Peptide P7, gal-1-targeted 12-mer linear peptide identified by phage display]
  LogP: 1.02
pH 7.4
  LogD7.4: −7.63
